Measured values: US20200079758A1, “[4-(PHENYLSULFONYL)PIPERAZIN-1-YL](1H-1,2,3-TRIAZOL-4-YL)METHANONES” (priority 2016, published 2020)

target: T1, recombinant human AKR1C3 (Homo sapiens, UniProt P42330); assay: AKR1C3-inhibitory activity assay (generation of Coumberol from Coumberone); assay type: biochemical; conditions: Coumberone 0.3 μM, NADPH 10 μM, 22° C., typically 90 min, average or median values
T1 construct: GST (cleaved yes); made in house; host or cells: E. coli
T1 sequence (P42330 1-323): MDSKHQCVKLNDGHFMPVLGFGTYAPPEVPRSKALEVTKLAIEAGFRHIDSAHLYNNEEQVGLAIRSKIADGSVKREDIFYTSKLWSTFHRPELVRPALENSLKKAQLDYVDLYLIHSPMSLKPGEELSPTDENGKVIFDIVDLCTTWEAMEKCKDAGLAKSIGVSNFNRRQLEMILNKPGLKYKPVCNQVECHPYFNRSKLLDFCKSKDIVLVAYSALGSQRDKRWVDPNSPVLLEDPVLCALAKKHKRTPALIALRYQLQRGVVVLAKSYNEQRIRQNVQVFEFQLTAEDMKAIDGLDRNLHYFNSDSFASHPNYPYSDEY
Summary of the method: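 Recombinant human AKR1C3 (E. coli GST fusion, GST removed; ~1 nM) preincubated 15 min with compound, then NADPH 10 μM and Coumberone 0.3 μM (final), 22 °C, typically 90 min, in 50 mM K-phosphate pH 7. Stopped with EM-1404 (1 μM final); Coumberol fluorescence read at 520 nm (ex 380 nm), normalized to no-inhibitor and no-enzyme controls.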

IC50 | Structure (SMILES)
2 nM | CC1(C)CN(C(=O)c2cnn[nH]2)CCN1S(=O)(=O)c1ccc(Cl)c(Cl)c1 [Example 116, {4-[(3,4-dichlorophenyl)sulfonyl]-3,3-dimethylpiperazin-1-yl}(1H-1,2,3-triazol-5-yl)methanone]
4 nM | Cc1cccc(Cl)c1S(=O)(=O)N1CCN(C(=O)c2cnn[nH]2)CC1(C)C [Example 117, {4-[(2-chloro-6-methylphenyl)sulfonyl]-3,3-dimethylpiperazin-1-yl}(1H-1,2,3-triazol-5-yl)methanone]
77 nM | COc1ccc(S(=O)(=O)N2CCN(C(=O)c3cnn[nH]3)CC2(C)C)cc1OC [Example 118, {4-[(3,4-dimethoxyphenyl)sulfonyl]-3,3-dimethylpiperazin-1-yl}(1H-1,2,3-triazol-5-yl)methanone]
9 nM | CC1(C)CN(C(=O)c2cnn[nH]2)CCN1S(=O)(=O)c1cccc(Cl)c1Cl [Example 119, {4-[(2,3-dichlorophenyl)sulfonyl]-3,3-dimethylpiperazin-1-yl}(1H-1,2,3-triazol-5-yl)methanone]
263 nM | CC1(C)CN(C(=O)c2cnn[nH]2)CCN1S(=O)(=O)c1ccc(C#N)cc1 [Example 120, 4-{[2,2-dimethyl-4-(1H-1,2,3-triazol-5-ylcarbonyl)piperazin-1-yl]sulfonyl}benzonitrile]
29 nM | CC1(C)CN(C(=O)c2cnn[nH]2)CCN1S(=O)(=O)c1cccc2nsnc12 [Example 121, [4-(2,1,3-benzothiadiazol-4-ylsulfonyl)-3,3-dimethylpiperazin-1-yl](1H-1,2,3-triazol-5-yl)methanone]
35 nM | CC1(C)CN(C(=O)c2cnn[nH]2)CCN1S(=O)(=O)c1cccc2nonc12 [Example 122, [4-(2,1,3-benzoxadiazol-4-ylsulfonyl)-3,3-dimethylpiperazin-1-yl](1H-1,2,3-triazol-5-yl)methanone]
12 nM | CC1(C)CN(C(=O)c2cnn[nH]2)CCN1S(=O)(=O)c1c(Cl)cc(Cl)cc1Cl [Example 123, {3,3-dimethyl-4-[(2,4,6-trichlorophenyl)sulfonyl]piperazin-1-yl}(1H-1,2,3-triazol-5-yl)methanone]
96 nM | COc1ccc(Cl)cc1S(=O)(=O)N1CCN(C(=O)c2cnn[nH]2)CC1(C)C [Example 124, {4-[(5-chloro-2-methoxyphenyl)sulfonyl]-3,3-dimethylpiperazin-1-yl}(1H-1,2,3-triazol-5-yl)methanone]
25 nM | CC1(C)CN(C(=O)c2cnn[nH]2)CCN1S(=O)(=O)c1ccc2nsnc2c1 [Example 125, [4-(2,1,3-benzothiadiazol-5-ylsulfonyl)-3,3-dimethylpiperazin-1-yl](1H-1,2,3-triazol-5-yl)methanone]
46 nM | CC1(C)CN(C(=O)c2cnn[nH]2)CCN1S(=O)(=O)c1ccc(F)c(F)c1F [Example 126, {3,3-dimethyl-4-[(2,3,4-trifluorophenyl)sulfonyl]piperazin-1-yl}(1H-1,2,3-triazol-5-yl)methanone]
4 nM | CC1(C)CN(C(=O)c2cnn[nH]2)CCN1S(=O)(=O)c1cc(Cl)ccc1F [Example 127, {4-[(5-chloro-2-fluorophenyl)sulfonyl]-3,3-dimethylpiperazin-1-yl}(1H-1,2,3-triazol-5-yl)methanone]
18 nM | CC1(C)CN(C(=O)c2cnn[nH]2)CCN1S(=O)(=O)c1cc(F)c(F)cc1F [Example 128, {3,3-dimethyl-4-[(2,4,5-trifluorophenyl)sulfonyl]piperazin-1-yl}(1H-1,2,3-triazol-5-yl)methanone]
6 nM | Cc1ccc(Cl)cc1S(=O)(=O)N1CCN(C(=O)c2cnn[nH]2)CC1(C)C [Example 129, {4-[(5-chloro-2-methylphenyl)sulfonyl]-3,3-dimethylpiperazin-1-yl}(1H-1,2,3-triazol-5-yl)methanone]
38 nM | COc1ccccc1S(=O)(=O)N1CCN(C(=O)c2cnn[nH]2)CC1(C)C [Example 130, {4-[(2-methoxyphenyl)sulfonyl]-3,3-dimethylpiperazin-1-yl}(1H-1,2,3-triazol-5-yl)methanone]
204 nM | COC(=O)c1cccc(S(=O)(=O)N2CCN(C(=O)c3cnn[nH]3)CC2(C)C)c1 [Example 131, methyl 3-{[2,2-dimethyl-4-(1H-1,2,3-triazol-5-ylcarbonyl)piperazin-1-yl]sulfonyl}benzoate]
22 nM | CC1(C)CN(C(=O)c2cnn[nH]2)CCN1S(=O)(=O)c1ccc2c(c1)OCO2 [Example 132, [4-(1,3-benzodioxol-5-ylsulfonyl)-3,3-dimethylpiperazin-1-yl](1H-1,2,3-triazol-5-yl)methanone]
16 nM | COc1cc(C)ccc1S(=O)(=O)N1CCN(C(=O)c2cnn[nH]2)CC1(C)C [Example 133, {4-[(2-methoxy-4-methylphenyl)sulfonyl]-3,3-dimethylpiperazin-1-yl}(1H-1,2,3-triazol-5-yl)methanone]
7 nM | CC1(C)CN(C(=O)c2cnn[nH]2)CCN1S(=O)(=O)c1cccc(Cl)c1C#N [Example 134, 2-chloro-6-{[2,2-dimethyl-4-(1H-1,2,3-triazol-5-ylcarbonyl)piperazin-1-yl]sulfonyl}benzonitrile]
4 nM | CC1(C)CN(C(=O)c2cnn[nH]2)CCN1S(=O)(=O)c1cccc2c1OCC2 [Example 135, [4-(2,3-dihydro-1-benzofuran-7-ylsulfonyl)-3,3-dimethylpiperazin-1-yl](1H-1,2,3-triazol-5-yl)methanone]
5 nM | CC1(C)CN(C(=O)c2cnn[nH]2)CCN1S(=O)(=O)c1cc(F)ccc1Cl [Example 136, {4-[(2-chloro-5-fluorophenyl)sulfonyl]-3,3-dimethylpiperazin-1-yl}(1H-1,2,3-triazol-5-yl)methanone]
19 nM | CC1(C)CN(C(=O)c2cnn[nH]2)CCN1S(=O)(=O)c1cccc(F)c1Cl [Example 137, {4-[(2-chloro-3-fluorophenyl)sulfonyl]-3,3-dimethylpiperazin-1-yl}(1H-1,2,3-triazol-5-yl)methanone]
23 nM | COc1cc(F)ccc1S(=O)(=O)N1CCN(C(=O)c2cnn[nH]2)CC1(C)C [Example 138, {4-[(4-fluoro-2-methoxyphenyl)sulfonyl]-3,3-dimethylpiperazin-1-yl}(1H-1,2,3-triazol-5-yl)methanone]
285 nM | COc1ccc(C#N)cc1S(=O)(=O)N1CCN(C(=O)c2cnn[nH]2)CC1(C)C [Example 139, 3-{[2,2-dimethyl-4-(1H-1,2,3-triazol-5-ylcarbonyl)piperazin-1-yl]sulfonyl}-4-methoxybenzonitrile]
2 nM | Cc1cc(Cl)cc(S(=O)(=O)N2CCN(C(=O)c3cnn[nH]3)CC2(C)C)c1 [Example 140, {4-[(3-chloro-5-methylphenyl)sulfonyl]-3,3-dimethylpiperazin-1-yl}(1H-1,2,3-triazol-5-yl)methanone]
